# Experimental data published in ChEMBL document CHEMBL1126313, “Cysteine protease inhibition by azapeptide esters” (J Med Chem, 1992).
# Molecular target: T1, Papain (Carica papaya) (UniProt P00784)
# T1 sequence (whole entry): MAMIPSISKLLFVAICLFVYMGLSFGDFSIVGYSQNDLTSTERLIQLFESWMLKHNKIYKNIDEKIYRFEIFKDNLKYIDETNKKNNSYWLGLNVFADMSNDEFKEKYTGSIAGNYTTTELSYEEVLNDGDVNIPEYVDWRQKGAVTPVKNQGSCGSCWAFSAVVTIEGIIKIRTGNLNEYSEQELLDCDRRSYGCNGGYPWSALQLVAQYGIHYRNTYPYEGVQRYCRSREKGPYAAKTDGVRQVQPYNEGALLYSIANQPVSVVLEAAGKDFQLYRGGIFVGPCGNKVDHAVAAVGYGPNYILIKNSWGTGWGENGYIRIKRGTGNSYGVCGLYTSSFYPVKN
# Assay: The compound was tested for Rate of Inhibition of Papain.
row,Structure (SMILES),ki/Ki [M⁻¹ s⁻¹]
1,CC(=O)N[C@@H](Cc1ccccc1)C(=O)NN(C)C(=O)OCC(C)C,0.02
2,COC(=O)NNC(=O)[C@H](Cc1ccccc1)NC(C)=O,13
3,CC(=O)N[C@@H](Cc1ccccc1)C(=O)NNC(=O)Oc1ccccc1,> 11000
4,CC(=O)N[C@@H](Cc1ccccc1)C(=O)NNC(=O)OCC(C)C,18
